According to article PMC6150025, “Novel Mixed-Type Inhibitors of Protein Tyrosine Phosphatase 1B. Kinetic and Computational Studies” (Molecules : A Journal of Synthetic Chemistry and Natural …, 2017):
pIC50, pKi: −log10 of the molar value. Blank lines part the entries; values can stand above or below the molecule they belong to.

Tests used:
PTP1B = target: T1, PTP1B (Homo sapiens, UniProt P18031); assay: PTP1B enzymatic inhibition assay (pNPP substrate); format: biochemical; details: for inhibition at 200 µM: 200 µM compound, pNPP 50 mM, 30 min, 37 °C; for % Inhibition (200 µM): Table S1, 200 µM compound
T1 construct: encodes for PTP1B (residues 1–321); inferred from the pET28A vector, NdeI/BamHI cloning and Ni-agarose purification) (N); made in house; host or cells: E. coli BLR
T1 sequence (P18031 1-321): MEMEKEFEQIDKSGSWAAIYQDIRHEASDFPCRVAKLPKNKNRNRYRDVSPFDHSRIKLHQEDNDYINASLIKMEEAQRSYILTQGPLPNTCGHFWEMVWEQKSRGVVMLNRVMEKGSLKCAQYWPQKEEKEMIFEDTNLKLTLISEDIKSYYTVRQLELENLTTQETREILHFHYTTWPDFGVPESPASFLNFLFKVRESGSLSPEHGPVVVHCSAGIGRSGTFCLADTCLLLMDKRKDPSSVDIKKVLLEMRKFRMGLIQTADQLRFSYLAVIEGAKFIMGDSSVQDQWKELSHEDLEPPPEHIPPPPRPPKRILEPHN
Procedure: The PTP1B activity was measured based on the Goldstein method. The assay was performed with a final reaction volume of 500 µL in HEPES buffer (50 mM HEPES, 1mM DTT, 2 mM EDTA and 150 mM NaCl, pH 7.0), DMSO (10%) and p-nitrophenol phosphate (pNPP) as substrate (50 mM), the reaction was started with the PTP1B (1.5 µg/mL). After 30 min of incubation at 37 °C, the reaction was stopped by the addition of 500 µL of NaOH 5N reading the absorbance at 405 nm. The number of hydrolyzed moles of pNPP was determined using the molar extinction coefficient of the product pNP (18,500 M^−1 cm^−1).
Inhibition assays were performed under the above described conditions, adding to the reaction each one of the molecules at a final concentration of 200 µM. The concentration that inhibits 50% (IC50) of the PTP1B activity was determined through curves at different concentration of each compound, adjusting the data to the equation reported elsewhere. The inhibition type and constant were obtained by the measurement of the initial velocities of hydrolysis varying the substrate concentration in a range of 2–30 µM, in absence or presence of fixed concentrations of each inhibitor. For compound 1 the concentrations used were 3, 6, 10 and 20 µM; in the case of compound 2 were 2, 4, 6, 8, and 10 µM; and for compound 3 were 20, 50, 70 and 90 µM. The experimental data were analyzed through the Lineweaver-Burk plot using the software Sigma Plot V12.3 (Systat Software, Inc., San Jose, CA, USA).

Compound: COC(=O)c1cc2nc(SCC(=O)Nc3ccc([N+](=O)[O-])cn3)[nH]c2cc1Cl [methyl 6-chloro-2-({2-[(5-nitropyridin-2-yl)amino]-2-oxoethyl}sulfanyl)-1H-benzimidazole-5-carboxylate]
% Inhibition (200 µM) (PTP1B): 63%

Compound: N#Cc1ccc(-c2c(NC(=O)NS(=O)(=O)c3ccccc3Cl)oc(-c3ccco3)c2C#N)cc1 [2-[({[(2-chlorophenyl)sulphonyl]amino}carbonyl)amino]-4-cyano-3-(4-cyanophenyl)-5-(2-furyl)furan]
% Inhibition (200 µM) (PTP1B): 64%

Compound: Cn1c(SCCn2ccnc2)nc2cc(Cl)ccc21 [5-chloro-2-{[2-(1H-imidazol-1-yl)ethyl]sulfanyl}-1-methyl-1H-benzimidazole]
% Inhibition (200 µM) (PTP1B): 42%

Compound: O=C(O)c1ccc2[nH]c3c(c2c1)CCCC3 [6,7,8,9-Tetrahydro-5h-carbazole-3-carboxylic acid]
% Inhibition (200 µM) (PTP1B): 32%

Compound: O=C(CSc1nc2cc(Oc3cccc4ccccc34)c(Cl)cc2[nH]1)Nc1ncc([N+](=O)[O-])s1 [2-({6-chloro-5-[(naphthalen-1-yl)oxy]-1H-benzimidazol-2-yl}sulfanyl)-N-(5-nitro-1,3-thiazol-2-yl)acetamide]
% Inhibition (200 µM) (PTP1B): 63%

Results, then the molecule that gave them:

melting point: 237.5 to 238.9 °C
inhibition at 200 µM (PTP1B): 70%
Compound: CC(=O)Nc1nc2cc(Oc3cccc(Cl)c3Cl)c(Cl)cc2n1C [Compound 9, N-[6-Chloro-5-(2,3-dichlorophenoxy)-1-methyl-1H-benzimidazol-2-yl]acetamide]

inhibition at 200 µM (PTP1B): 99%
pKi (PTP1B; Lineweaver-Burk analysis, mixed type model): 5.38
Inhibition Type (PTP1B; Lineweaver-Burk plots): Mixed
pIC50 (PTP1B; curves at different concentration of each compound): 5.08
Vmax (PTP1B; from fit of the kinetic data for each inhibitor): 16 µmol/min/mg
α (PTP1B; mixed type inhibition model): 2.9
Km (PTP1B; pNPP, from fit of the kinetic data for each inhibitor): 6.8 mM
Compound: O=C(CSc1nc2cc(Oc3cccc4ccccc34)c(Cl)cc2[nH]1)Nc1nccs1 [Compound 2, 2-[6-Chloro-5-(1-naphthalyloxy)-1H-benzimidazol-2-yl]thio-N-(thiazol-2-yl)acetamide]

% Inhibition (200 µM) (PTP1B): 58%
Compound: O=C(O)C=CC(=O)Nc1ccc(N2CCCCCC2)c(NC(=O)C=CC(=O)O)c1 [4-{2-(1-azepanyl)-5-[(4-hydroxy-4-oxo-2-butenoyl)amino]anilino}-4-oxo-2-butenoic acid]

% Inhibition (200 µM) (PTP1B): 38%
Compound: COc1cc(C(CC(=O)O)CC(=O)N2CCC(n3cccc3)CC2)cc(OC)c1OC (stereo not shown) [5-oxo-5-[4-(1H-pyrrol-1-yl)piperidino]-3-(3,4,5-trimethoxyphenyl)pentanoic acid]
